# Test results taken from publication PMC11225074 (Clinical and Translational Medicine, 2024).
# Columns and labels:
# [1] = tested on: His‐YBX1; assay: Microscale thermophoresis (MST), His-YBX1 wild type; format: binding; conditions: PBS (pH 7.4) with 0.05% Tween‐20, peptide 10 nM to 500 µM, NT-647-NHS labelled protein; at least three experiments
# Method: The recombinant plasmids pGEX and pET‐28a expressing GST‐YBX1 and His‐YBX1, respectively, were transformed into E. coli BL21 to generate two recombinant strains pGEX‐GST‐YBX1 and pET‐28a‐His‐YBX1. These strains were inoculated into LB medium and cultured with ampicillin or kanamycin, and isopropylthio‐β‐D‐galactoside at 16°C overnight. Post‐culturing, the cells were collected and sonicated in PBS.
# Proteins with labels were dissolved in a solution of PBS (pH 7.4) with 0.05% Tween‐20. […] After incubation, the mixture was moved to silica capillaries and thermophoresis was assessed using a NanoTemper Monolith NT.115 device from NanoTemper Technologies GmbH. Dissociation constant (Kd) values were determined using the law of mass action formula in NanoTemper Analysis 1.5.41 software. All microscale thermophoresis (MST) experiments were conducted at least three times.
# [2] = tested on: Histone H3K4me1 and H3K4me3 peptides; assay: Dot blot of antibody specificity; format: binding; conditions: 1:1000, 16 h at 4°C, nitrocellulose, chemiluminescence
# Excerpt: Next, the membranes were washed with 1×TBST in order to eliminate any antibodies that were not bound. Following washing, the membranes were exposed to secondary antibodies that were linked to HRP.
Substance,Binding of His-YBX1 to peptide (MST) [1],Antibody specificity towards the corresponding modification [2]
"ART‐Kme0/1/3‐QTARKSTGGKAPRKQL [H3, chemically synthesized unmethylated histone H3 peptide of 20 amino acids (GenScript)]",no discernible binding affinity,
H3K4me1 antibody: anti‐H3K4me1 (1:1000; Abcam; ab176877),,high specificity
H3K4me3 antibody: anti‐H3K4me3 (1:1000; Abcam; ab213224),,high specificity
